Legend:
[1] = DRUGMATRIX: Purinergic P2X radioligand binding (ligand: [3H] alpha, beta-Methylene-ATP); assay type: cell membranes, Oryctolagus cuniculus, New Zealand albino, Urinary bladder, Membrane; details: Not Active = under 50% inhibition at 10 µM
[2] = molecular target: Platelet-activating factor receptor (Homo sapiens, UniProt P25105); assay type: tissue-based; further: in other assays of this panel Not Active means under 50% inhibition at 10 µM
[3] = molecular target: Beta-2 adrenergic receptor (Homo sapiens, UniProt P07550); test: DRUGMATRIX: Adrenergic beta2 radioligand binding (ligand: [3H] CGP-12177); assay type: cell membranes, CHO, Membrane; details: cho; Not Active = under 50% inhibition at 10 µM
[4] = molecular target: T1, Alpha-1D adrenergic receptor (Homo sapiens, UniProt P25100); assay type: cell membranes, HEK293, Membrane; further: in other assays of this panel Not Active means under 50% inhibition at 10 µM
T1 sequence (P25100 whole entry): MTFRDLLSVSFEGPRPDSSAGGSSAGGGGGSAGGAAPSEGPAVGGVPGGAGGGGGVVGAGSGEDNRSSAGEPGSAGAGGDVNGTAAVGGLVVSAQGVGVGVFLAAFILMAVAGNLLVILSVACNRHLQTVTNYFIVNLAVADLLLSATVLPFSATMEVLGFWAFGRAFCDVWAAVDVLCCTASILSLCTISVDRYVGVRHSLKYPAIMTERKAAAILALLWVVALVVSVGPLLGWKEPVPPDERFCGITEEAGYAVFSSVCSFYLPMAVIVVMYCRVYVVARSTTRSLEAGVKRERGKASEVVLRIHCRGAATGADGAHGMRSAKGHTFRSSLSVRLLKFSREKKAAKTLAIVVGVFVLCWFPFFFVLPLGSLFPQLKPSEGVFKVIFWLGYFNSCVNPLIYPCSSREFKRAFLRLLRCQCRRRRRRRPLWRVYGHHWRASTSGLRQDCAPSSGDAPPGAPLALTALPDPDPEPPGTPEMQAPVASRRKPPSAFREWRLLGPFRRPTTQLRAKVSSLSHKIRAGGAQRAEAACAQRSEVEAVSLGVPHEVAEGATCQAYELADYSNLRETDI

D(3) dopamine receptor = D(3) dopamine receptor (Homo sapiens, UniProt P35462); test: DRUGMATRIX: Dopamine D3 radioligand binding (ligand: [3H] Spiperone); assay type: cell membranes, CHO, Membrane
[5] = molecular target: C-C chemokine receptor type 2 (Homo sapiens, UniProt P41597); assay type: cell membranes, CHO-K1, Membrane; details: cho-k1; further: in other assays of this panel Not Active means under 50% inhibition at 10 µM
Chain of C-C chemokine receptor type 2 (P41597 whole entry): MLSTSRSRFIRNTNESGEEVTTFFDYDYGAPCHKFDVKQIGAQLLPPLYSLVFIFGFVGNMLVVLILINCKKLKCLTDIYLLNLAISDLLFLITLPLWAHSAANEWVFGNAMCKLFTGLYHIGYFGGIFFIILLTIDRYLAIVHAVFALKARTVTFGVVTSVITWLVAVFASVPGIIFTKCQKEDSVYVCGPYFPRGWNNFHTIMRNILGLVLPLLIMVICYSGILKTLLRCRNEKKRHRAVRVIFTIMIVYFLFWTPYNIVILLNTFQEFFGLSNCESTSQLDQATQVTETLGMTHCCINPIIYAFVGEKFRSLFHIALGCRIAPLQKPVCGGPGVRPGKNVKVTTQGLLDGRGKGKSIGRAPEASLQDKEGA

Chain of Platelet-activating factor receptor (P25105 whole entry): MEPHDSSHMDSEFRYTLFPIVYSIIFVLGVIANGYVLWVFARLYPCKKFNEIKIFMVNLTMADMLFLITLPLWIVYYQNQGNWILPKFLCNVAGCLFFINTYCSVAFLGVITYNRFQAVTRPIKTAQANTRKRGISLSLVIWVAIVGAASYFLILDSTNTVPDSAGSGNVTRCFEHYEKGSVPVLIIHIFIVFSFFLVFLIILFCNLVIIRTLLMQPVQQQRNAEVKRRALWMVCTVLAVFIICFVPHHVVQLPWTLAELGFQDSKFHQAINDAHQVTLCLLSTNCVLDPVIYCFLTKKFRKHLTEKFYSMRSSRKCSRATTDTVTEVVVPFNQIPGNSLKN
Chain of D(3) dopamine receptor (P35462 whole entry): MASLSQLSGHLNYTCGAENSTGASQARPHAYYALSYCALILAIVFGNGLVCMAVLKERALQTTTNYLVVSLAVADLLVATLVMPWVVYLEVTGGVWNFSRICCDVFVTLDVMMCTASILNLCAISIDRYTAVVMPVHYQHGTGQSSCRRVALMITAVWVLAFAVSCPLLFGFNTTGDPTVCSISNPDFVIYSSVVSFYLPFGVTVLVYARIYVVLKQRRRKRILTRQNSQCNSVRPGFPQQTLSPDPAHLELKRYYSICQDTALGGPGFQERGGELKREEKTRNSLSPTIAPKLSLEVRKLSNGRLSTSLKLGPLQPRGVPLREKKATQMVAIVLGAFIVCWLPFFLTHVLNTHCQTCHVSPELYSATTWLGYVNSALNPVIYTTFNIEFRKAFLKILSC

Row | Molecule | IC50 [1] | Ki [1] | IC50 [2] | IC50 [3] | IC50 ([4]; hek293) | IC50 (D(3) dopamine receptor; cho) | IC50 [5] | IC50 (D(3) dopamine receptor; read-out: IC50) | Ki (D(3) dopamine receptor; read-out: Ki) | IC50 ([4]; read-out: IC50) | Ki ([4]; read-out: Ki) | Ki [2] | Ki [3] | Ki ([4]; hek293) | Ki (D(3) dopamine receptor; cho) | Ki [5]
1 | O=C1c2ccccc2C(=O)C1c1ccccc1 [PHENINDIONE] | Not Active | Not Active | Not Active | Not Active | Not Active | Not Active | Not Active | – | – | – | – | – | – | – | – | –
2 | Clc1cc(Cl)c(OCC#CI)cc1Cl [HALOPROGIN] | Not Active | Not Active | Not Active | Not Active | Not Active | – | Not Active | 488 nM | 166 nM | – | – | – | – | – | – | –
3 | C[C@H]1C[C@H]2[C@@H]3CCC4=CC(=O)C=C[C@]4(C)[C@@]3(F)[C@@H](O)C[C@]2(C)[C@@]1(O)C(=O)CO [BETAMETHASONE] | Not Active | Not Active | Not Active | Not Active | Not Active | Not Active | Not Active | – | – | – | – | – | – | – | – | –
4 | COc1ccc(Cl)cc1C(=O)NCCc1ccc(S(=O)(=O)NC(=O)NC2CCCCC2)cc1 [GLYBURIDE] | Not Active | Not Active | Not Active | Not Active | Not Active | Not Active | Not Active | – | – | – | – | – | – | – | – | –
5 | CC1(COc2ccc(CC3SC(=O)NC3=O)cc2)CCCCC1 (stereo not drawn) [CIGLITAZONE] | Not Active | Not Active | Not Active | Not Active | Not Active | – | Not Active | 26700 nM | 9070 nM | – | – | – | – | – | – | –
6 | Cc1ccnc2c1NC(=O)c1cccnc1N2C1CC1 [NEVIRAPINE] | Not Active | Not Active | Not Active | Not Active | Not Active | Not Active | Not Active | – | – | – | – | – | – | – | – | –
7 | CNC[C@H](O)c1ccc(O)c(O)c1 [EPINEPHRINE] | Not Active | Not Active | Not Active | – | – | Not Active | Not Active | – | – | 449 nM | 221 nM | – | – | – | – | –
8 | CN(Cc1cc(Br)cc(Br)c1N)C1CCCCC1 [BROMHEXINE] | Not Active | Not Active | Not Active | Not Active | Not Active | Not Active | Not Active | – | – | – | – | – | – | – | – | –
9 | COPPER(II) OXIDE | Not Active | Not Active | Not Active | Not Active | Not Active | Not Active | Not Active | – | – | – | – | Not Active | Not Active | Not Active | Not Active | Not Active
10 | CCN1C[C@]2(COC)[C@H](O)C[C@H](OC)[C@@]34[C@@H]5C[C@@]6(O)[C@H](OC(=O)c7ccccc7)[C@@H]5[C@@](OC(C)=O)([C@@H]([C@H](OC)[C@H]23)[C@@H]14)[C@@H](O)[C@@H]6OC [ACONITINE] | Not Active | Not Active | Not Active | Not Active | Not Active | Not Active | Not Active | – | – | – | – | – | – | – | – | –
11 | COc1ccc(C[C@H](N)C(=O)N[C@H]2[C@@H](O)[C@H](n3cnc4c(N(C)C)ncnc43)O[C@@H]2CO)cc1 [PUROMYCIN] | Not Active | Not Active | Not Active | Not Active | Not Active | Not Active | Not Active | – | – | – | – | – | – | – | – | –
12 | OC[C@H]1OC2C3[C@@H](CO)OC(O[C@H]4[C@H](O)[C@@H](O)[C@@H](O[C@H]5[C@H](O)[C@@H](O)[C@@H](O[C@H]6[C@H](O)[C@@H](O)[C@@H](O[C@H]7[C@H](O)[C@@H](O)[C@@H](O[C@H]8[C@H](O)[C@@H](O)[C@@H](O[C@H]9[C@H](O)[C@@H](O)C(OC1[C@H](O)[C@H]2O)O[C@@H]9CO)O[C@@H]8CO)O[C@@H]7CO)O[C@@H]6CO)O[C@@H]5CO)O[C@@H]4CO)[C@H](O)[C@H]3O | Not Active | Not Active | Not Active | Not Active | Not Active | Not Active | Not Active | – | – | – | – | – | – | – | – | –
13 | NC(N)=Nc1nc(CSCCC(N)=NS(N)(=O)=O)cs1 [FAMOTIDINE] | Not Active | Not Active | Not Active | Not Active | Not Active | Not Active | Not Active | – | – | – | – | – | – | – | – | –
14 | C[N+](C)(C)CCOP(=O)([O-])OC[C@H](O)CO | Not Active | Not Active | Not Active | Not Active | Not Active | Not Active | Not Active | – | – | – | – | – | – | – | – | –
15 | COc1cc(/C=C/C(=O)O)ccc1O [FERULATE] | Not Active | Not Active | Not Active | Not Active | Not Active | Not Active | Not Active | – | – | – | – | – | – | – | – | –
16 | NC(=O)NC(=O)Cc1ccccc1 [PHENACEMIDE] | Not Active | Not Active | Not Active | Not Active | Not Active | Not Active | Not Active | – | – | – | – | – | – | – | – | –
17 | NC(=O)CN1CCCC1=O | Not Active | Not Active | Not Active | Not Active | Not Active | Not Active | Not Active | – | – | – | – | – | – | – | – | –

Row | Molecule | IC50 [1] | Ki [1] | IC50 [2] | IC50 [3] | IC50 ([4]; hek293) | IC50 (D(3) dopamine receptor; cho) | IC50 [5] | IC50 (D(3) dopamine receptor; read-out: IC50) | Ki (D(3) dopamine receptor; read-out: Ki) | IC50 ([4]; read-out: IC50) | Ki ([4]; read-out: Ki) | Ki [2] | Ki [3] | Ki ([4]; hek293) | Ki (D(3) dopamine receptor; cho) | Ki [5]
18 | CC(C)Cn1cnc2c(N)nc3ccccc3c21 [IMIQUIMOD] | Not Active | Not Active | Not Active | Not Active | – | Not Active | Not Active | – | – | 2620 nM | 1290 nM | – | – | – | – | –
19 | CCO [ALCOHOL] | Not Active | Not Active | Not Active | Not Active | Not Active | Not Active | Not Active | – | – | – | – | – | – | – | – | –
20 | C[C@H](C(=O)O)c1ccc2oc(-c3ccc(F)cc3)nc2c1 [FLUNOXAPROFEN] | Not Active | Not Active | Not Active | Not Active | Not Active | Not Active | Not Active | – | – | – | – | – | – | – | – | –
21 | O=C(O)c1ccccc1 [BENZOIC ACID] | Not Active | Not Active | Not Active | Not Active | Not Active | Not Active | Not Active | – | – | – | – | – | – | – | – | –
22 | CN(CCOc1ccc(C[C@H](Nc2ccccc2C(=O)c2ccccc2)C(=O)O)cc1)c1ccccn1 | Not Active | Not Active | Not Active | Not Active | Not Active | Not Active | Not Active | – | – | – | – | – | – | – | – | –
23 | O=c1[nH]cnc2c1ncn2[C@H]1CC[C@@H](CO)O1 [DIDANOSINE] | Not Active | Not Active | Not Active | Not Active | Not Active | Not Active | Not Active | – | – | – | – | – | – | – | – | –
24 | CC(C)(c1ccc(O)cc1)c1ccc(O)cc1 [BISPHENOL A] | Not Active | Not Active | Not Active | Not Active | Not Active | Not Active | Not Active | – | – | – | – | – | – | – | – | –
25 | ClC1=C(Cl)[C@]2(Cl)[C@@H]3[C@@H]4C[C@@H]([C@H]5O[C@@H]45)[C@@H]3[C@@]1(Cl)C2(Cl)Cl [DIELDRIN] | Not Active | Not Active | Not Active | Not Active | Not Active | Not Active | Not Active | – | – | – | – | – | – | – | – | –
26 | c1ccc(Cn2ccnc2)cc1 | Not Active | Not Active | Not Active | Not Active | Not Active | Not Active | Not Active | – | – | – | – | – | – | – | – | –
27 | C[C@]12CC[C@@H](O)C[C@@H]1CC[C@@H]1[C@@H]2CC[C@]2(C)C(=O)CC[C@@H]12 [ANDROSTERONE] | Not Active | Not Active | Not Active | Not Active | Not Active | Not Active | Not Active | – | – | – | – | – | – | – | – | –
28 | CC12CCC(CC1)C(C)(C)O2 [EUCALYPTOL] | Not Active | Not Active | Not Active | Not Active | Not Active | Not Active | Not Active | – | – | – | – | – | – | – | – | –
29 | Nc1nc(N)c2nc(CNc3ccc(C(=O)N[C@@H](CCC(=O)O)C(=O)O)cc3)cnc2n1 [AMINOPTERIN] | Not Active | Not Active | Not Active | Not Active | Not Active | Not Active | Not Active | – | – | – | – | – | – | – | – | –
30 | Nc1ccc(Cc2ccc(N)cc2)cc1 | Not Active | Not Active | Not Active | Not Active | Not Active | Not Active | Not Active | – | – | – | – | – | – | – | – | –
31 | COc1ccccc1OCCNCC(O)COc1cccc2[nH]c3ccccc3c12 (stereo not drawn) [CARVEDILOL] | Not Active | Not Active | Not Active | – | – | – | Not Active | 577 nM | 196 nM | 1.8 nM | 0.883 nM | – | – | – | – | –
32 | CC(C)NCC(O)COc1ccc(CC(N)=O)cc1 (stereo not drawn) [ATENOLOL] | Not Active | Not Active | Not Active | – | Not Active | Not Active | Not Active | – | – | – | – | – | – | – | – | –
33 | Cc1cc(C(C)(C)C)c(O)c(C)c1CC1=NCCN1 [OXYMETAZOLINE] | Not Active | Not Active | Not Active | Not Active | – | Not Active | Not Active | – | – | – | – | – | – | – | – | –

Source: ChEMBL document CHEMBL1909046, “DrugMatrix in vitro pharmacology data”
